From PubChem BioAssay AID1996
In brackets after ≈: the same amount, converted by molar mass.

Conditions: buffer; pH 7.4; 200.0 µM

Row | Structure (SMILES) | solubility kinetic [µg/mL]
1 | CC1CCCCN1S(=O)(=O)Cc1ccccc1Cl (configuration not stated) | > 43.2
2 | O=C(c1c[nH]c2ccccc12)C(F)(F)F | 20.2 (≈ 94.8 µM)
3 | C[N+]1(C)CCCC(OC(=O)C(O)(c2ccccc2)c2ccccc2)C1.[Br-] (configuration not stated) | > 63.1
4 | Cc1cc(=O)oc2c(CN3CCN(CCO)CC3)c(O)ccc12 | > 47.8
5 | CCOc1ccc(-c2c(=O)n(O)c3ccccc3[n+]2[O-])cc1 | > 44.7
6 | CCN(CC)S(=O)(=O)c1ccc(OC)c(N)c1 | 35.1 (≈ 136 µM)
7 | c1ccc(-c2noc(-c3ccno3)n2)nc1 | 25.4 (≈ 119 µM)
8 | O=C(NNC(=O)c1cccnc1)NC1CCCCC1 | > 39.3
9 | CCOC(=O)CCNC(=O)N1CCCC(C(=O)c2ccccc2SC)C1 (configuration not stated) | > 56.8
10 | COCCNC(=O)Nc1ccc(F)cc1 | > 31.8
11 | CCOC(=O)c1c(O)cc(C)[nH]c1=O | > 29.6
12 | CCc1ccc(N/C(=N/c2nc(C)cc(C)n2)NC(C)=O)cc1 | 9.2 (≈ 29.5 µM)
13 | O=C(NCCN1CCCCC1)Nc1cccc(Cl)c1Cl | < 0.2
14 | CCN(CCO)c1ccc(N=Cc2c(O)n(C)c(=S)[nH]c2=O)cc1 | 3.2 (≈ 9.18 µM)
15 | O=c1[nH]c(=S)[nH]c2c1CN(Cc1ccc(F)cc1)CC2 | 28.6 (≈ 98.2 µM)
16 | O=S(=O)(c1cccc2cccnc12)N1CCCCC1 | > 41.5
17 | O=P([O-])(CN1CCCCCC1)C1Cc2ccccc2C1 | 43.7
18 | CC1(C)C(C#N)=C(N)Oc2c1c(=O)oc1ccccc21 | 1.1 (≈ 4.1 µM)
19 | Cc1ccc(C(=O)O/N=C(\N)c2ccccn2)c(Cl)c1 | 42.4 (≈ 146 µM)
20 | Cc1cc(NC(=O)c2cc([N+](=O)[O-])cc([N+](=O)[O-])c2)no1 | 9.8 (≈ 33.5 µM)
21 | Cc1ccc(S(=O)(=O)N(C)c2ccc(OC(=O)c3cccs3)cc2)cc1 | 1.2 (≈ 3.1 µM)
22 | COc1ccc([C@@H]2Sc3ccccc3NC(=O)[C@@H]2O)cc1 | 6.2 (≈ 20.6 µM)

Row | Structure (SMILES) | solubility kinetic [µg/mL]
23 | COc1cccc2cc(C(=O)OCC(=O)N3CC(C)OC(C)C3)c(=O)oc12 (configuration not stated) | > 56.3
24 | O=C(Nc1ccccc1)NC1CCCCNC1=O (configuration not stated) | > 37.1
25 | O=C(O)/C=C/c1ccc(S(=O)(=O)NCc2cccnc2)cc1 | > 47.8
26 | O=c1c2ccccc2nc(/C=C/c2cc(Br)ccc2O)n1CCO | 6.1 (≈ 15.8 µM)
27 | CC1CC1C(=O)OCC(=O)Nc1ccc(Cl)cn1 (configuration not stated) | 27.6 (≈ 103 µM)
28 | O=S(=O)(c1ccccc1)N1CCN(Cc2ccccc2)CC1 | 0.5 (≈ 1.58 µM)
29 | O=C(CSc1ccc2ccccc2n1)c1ccccc1 | 1.5 (≈ 5.37 µM)
30 | C=C(C)Cn1c(CCNC(=O)c2ccco2)nc2ccccc21 | > 46.4
31 | CSCCC(NC(=O)c1ccccc1)C(=O)OCC(=O)NCc1ccco1 (configuration not stated) | > 58.6
32 | N#Cc1nc(-c2ccccc2)oc1N1CCC(C(N)=O)CC1 | 39.7 (≈ 134 µM)
33 | COc1cc(/C=C/C(=O)OCC(=O)Nc2cccc(F)c2)ccc1O | 24.6 (≈ 71.2 µM)
34 | Cc1cccc(OC(C)C(=O)NC2CCS(=O)(=O)C2)c1C (configuration not stated) | 46.4 (≈ 149 µM)
35 | O=C(Nc1cc(C(=O)N2CCN(c3ccccc3)CC2)ccc1Cl)c1cccs1 | 4.8 (≈ 11.3 µM)
36 | CCn1cnc2cc(NCc3ccc(Cl)cc3)ccc21 | 34 (≈ 119 µM)
37 | CCOC(=O)CNC(=O)c1sc(NC(=O)/C=C/c2ccccc2)nc1C | 0.3 (≈ 0.803 µM)
38 | CCN(CC)C(=O)c1ccccc1NC(=O)c1ccccc1 | > 44.5
39 | CC(NC(=O)c1ccco1)c1nc(-c2ccccc2Cl)no1 (configuration not stated) | > 47.7
40 | O=C(c1ccncc1)N1CCN(S(=O)(=O)c2ccccc2F)CC1 | > 52.4
41 | CN(C)c1cccc(NC(=O)c2ccco2)c1 | > 34.5
42 | CNc1nc(C23CC4CC(CC(C4)C2)C3)cs1 | 13 (≈ 52.3 µM)
43 | Cc1cc(NC(=O)COc2ccc(C(C)(C)C)cc2)no1 | 2 (≈ 6.94 µM)
44 | Cc1ccccc1NC(=S)N(Cc1ccccc1)Cc1cccs1 | 0.7 (≈ 1.99 µM)

Row | Structure (SMILES) | solubility kinetic [µg/mL]
45 | CCOc1ncccc1C(=O)OCC(=O)N1CCC(C)CC1 | > 46
46 | CCN1C(=O)CC(NCc2ccc(S(N)(=O)=O)cc2)C1=O (configuration not stated) | > 46.7
47 | CCc1ccc(/C=C2/C(=O)NC(=O)N2C(C)=O)cc1 | 18.6 (≈ 72 µM)
48 | CCSC1=C(C#N)C2(CCCCC2)C2=C(CC(C)(C)CC2=O)N1 | 1 (≈ 3.03 µM)
49 | O=S(=O)(Nc1ccon1)c1ccc(Br)cc1 | 32.2 (≈ 106 µM)
50 | CCC1(CC)NC(=O)N(CC(=O)Nc2cccc3ccccc23)C1=O | > 50.9
51 | COc1ccc(NC(=O)C(Cc2cc(C)cc(C)c2)C(C)C(=O)O)cc1 (configuration not stated) | 36.5 (≈ 103 µM)
52 | Cc1ccccc1S(=O)Cc1ccc(C(=O)NC2CC2)o1 (configuration not stated) | > 45.5
53 | CCOC(=O)C1CCN(Cc2cc(=O)oc3cc(C)ccc23)CC1 | 43.1 (≈ 131 µM)
54 | O=C(N/C(=C\c1ccccc1)C(=O)N1CCCCC1)c1ccco1 | 42.4 (≈ 131 µM)
55 | O=C(Nc1nc2ccccc2[nH]1)C1CCCC1 | 4 (≈ 17.4 µM)
56 | COc1ccc(NC(=O)N2CCc3ccccc3C2)cc1 | 17.8 (≈ 63 µM)
57 | CC(Nc1ccccc1)c1cccnc1 (configuration not stated) | > 29.7
58 | Cc1ccc(C(C)NC(=O)c2cccs2)cc1C (configuration not stated) | 5.7 (≈ 22 µM)
59 | Cc1nc(C)c(C(=O)OCC(=O)NCc2ccccc2)s1 | > 45.7
60 | Cc1cccc(C)c1OCC(=O)Nc1ccccc1C(F)(F)F | 1.6 (≈ 4.95 µM)
61 | CCc1ccc2oc(C(=O)N3CCN(C)CC3)cc(=O)c2c1 | > 45.1
62 | CCOc1ccc(N2CC(C(=O)NCc3ccccn3)CC2=O)cc1 (configuration not stated) | 37.5 (≈ 110 µM)
63 | Cl.Fc1ccccc1Nc1nc(Cl)nc(Cl)n1 | > 44.3
64 | C=CCn1c(O)c(C(C)=Nc2ccc(C(=O)O)cc2)c(=O)[nH]c1=O | > 49.4
65 | O=C(/C=C/c1ccco1)Oc1cccc2cccnc12 | 27.1 (≈ 102 µM)
66 | Cc1ccc(C(=O)OCC(=O)NC2CCCCCC2)c(C)c1 | 4.6 (≈ 15.2 µM)

Row | Structure (SMILES) | solubility kinetic [µg/mL]
67 | O=[N+]([O-])c1ccccc1CN1CCN(c2ncccn2)CC1 | 34.8 (≈ 116 µM)
68 | Cc1ccc(-c2csc(CC(N)=O)n2)cc1 | > 34.8
69 | CC(C)(C)n1cnc2cc(NC(=O)c3ccc(Cl)cc3)ccc21 | 33.4 (≈ 102 µM)
70 | Cc1ccc(NC(=O)C2=CC=CN3CCS(=O)(=O)N=C23)cc1 | 11.6 (≈ 36.6 µM)
71 | COc1ccccc1CN(C)CC(=O)Nc1cccc2ccccc12 | 18.9 (≈ 56.5 µM)
72 | Cc1[nH]c2ccccc2c1-c1nc(N)sc1C | > 36.5
73 | CC(C)(C)c1ccc(S(=O)(=O)Nc2noc3ccccc23)cc1 | > 49.6
74 | COC(=O)c1cc(C(=O)NC(C)C2CC3CCC2C3)cc([N+](=O)[O-])c1 (configuration not stated) | 11 (≈ 31.8 µM)
75 | Cn1c(=O)c(C(=O)NCc2ccc(Cl)cc2)c(O)c2ccccc21 | < 0.4
76 | Cc1cc(O)c(C(=O)Cc2csc(C)n2)c(O)c1 | 4.1 (≈ 15.6 µM)
77 | Cc1ccc(CNC(=O)CN2C(=O)NC3(CCCC3)C2=O)cc1 | 43.6 (≈ 138 µM)
78 | CC(C(=O)NCc1ccccc1)N1CCN(c2ccc(F)cc2)CC1 (configuration not stated) | > 51.2
79 | CCOP(=O)(c1ccccc1)C(O)c1ccc([N+](=O)[O-])cc1 (configuration not stated) | > 48.2
80 | O=C(NCc1ccccc1Br)c1ccncc1 | 39.9 (≈ 137 µM)
81 | Cc1ccc(OCC(O)CN2CCOCC2)cc1 (configuration not stated) | 33.4 (≈ 133 µM)
82 | O=C(O)c1ccccc1NCc1ccsc1 | > 35
83 | CCOC(=O)C1=C(C)NC(=O)NC1/C=C\c1ccccc1 (configuration not stated) | 1.3 (≈ 4.54 µM)
84 | CC1(c2ccc(OC(F)F)cc2)NC(=O)N(CC(=O)NC2CCCC2)C1=O (configuration not stated) | > 57.2
85 | CCOc1ccc(S(=O)(=O)N2CN3CCN(C3)C2)cc1 | > 44.6
86 | Br.CC(C)(C)c1ccc(C2=CSC3=NCCN23)cc1 | 49.4
87 | Cc1cccc(-n2c(C)nc3ccccc3c2=O)c1C | > 39.6
